# Where a name gives a salt, the structure may show the parent alone.
# Legend:
# D341 = assay: cells; conditions: Homo sapiens, D341, 96 h, read-out: Inhibition of H^3 Thymidine uptake (IC50 in nM)
# Description: (§1) Quantification of cell proliferation and cell viability was determined by measuring the amount of radioactive [^3H-methyl]-thymidine incorporated into DNA.
# (§2) Cell culture: For each cell line, culture was carried according to the ATCC Product Information Sheet provided. Cell lines were always freshly thawed prior to each experiment. For all experiments exponentially growing cells were harvested and centrifuged at 1100 rpm, the spent medium was aspirated and cell pellets were resuspended in fresh complete medium. Viable cells were enumerated by trypan blue exclusion using a hemacytometer.
# (§3) Cells were then seeded in 96 well tissue culture plates in a total volume of 100 μL/well. A preliminary experiment should be performed to determine the most appropriate cell density for each individual cell line. Cells were allowed to attach and acclimate overnight.
# (§4) Addition of test compounds: Each test compound was dissolved in DMSO at a final concentration of 2 mM. Each stock compound was then diluted in complete medium (1:100) to obtain a 20 μM working solution. The working solution was used for further serial dilutions to obtain concentrations of 200 nM, 20 nM, 2 nM, 0.2 nM and 0.02 nM. 100 μL of each dilution was added to the 100 μL cell cultures (3 replicates),. to give final test concentrations of 100 nM, 10 nM, 1 nM, 0.1 nM and 0.01 nM. Using this system of dilutions, the maximum concentration of DMSO to which the cells were exposed was 0.01% v/v. Therefore, 0.01% DMSO was added to control cells to which no test compounds was added. On each plate two positive controls were included: Adriamycin Hydrochloride and Rapamycin. For each positive control 3 concentrations were chosen in a range that achieved an LC50, this range is cell line specific and must be predetermined in a pilot experiment. Plates were incubated for 96 hours prior to harvesting. [^3H-methyl]-thymidine incorporation: After 80 hours incubation, 10 μL (0.5 μCi) of [^3H-methyl]-thymidine diluted in 1× HBSS was added and plates were incubated overnight.
# (§5) Growth medium was removed from each well and 100 uL of Trypsin-EDTA was added. The plate was incubated at 37° C. until cells were trypsinized (check under microscope). The detached cells were harvested using a semiautomatic cell harvester. Filters were dried prior to addition to scintillation vials. two mL of scintillation fluid was automatically dispensed into each vial and counting was effected on program 1 (^3H, 1 min, DPM).
# (§6) The average and standard error from the DPM counts of replicate samples were calculated.
# A431 = assay: cells; conditions: Homo sapiens, A-431, 96 h, read-out: Inhibition of H^3 Thymidine uptake (IC50 in nM)
# Description: as §1, §2, §3, §4, §5, §6
# OVCAR-3 = assay: cells; conditions: Homo sapiens, OVCAR-3, 96 h, read-out: Inhibition of H^3 Thymidine uptake (IC50 in nM)
# Description: as §1, §2, §3, §4, §5, §6
# SK-N-SH = assay: cells; conditions: Homo sapiens, 96 h, read-out: Inhibition of H^3 Thymidine uptake (IC50 in nM)
# Description: as §1, §2, §3, §4, §5, §6
# SKMEL-2 = assay: cells; conditions: Homo sapiens, SK-MEL-2, 96 h, read-out: Inhibition of H^3 Thymidine uptake (IC50 in nM)
# Description: as §1, §2, §3, §4, §5, §6
# LS174T = assay: cells; conditions: Homo sapiens, 96 h, read-out: Inhibition of H^3 Thymidine uptake (IC50 in nM)
# Description: as §1, §2, §3, §4, §5, §6
# Lncap = assay: cells; conditions: Homo sapiens, 96 h, read-out: Inhibition of H^3 Thymidine uptake (IC50 in nM)
# Description: as §1, §2, §3, §4, §5, §6
# SKOV-3 = assay: cells; conditions: Homo sapiens, SK-OV-3, 96 h, read-out: Inhibition of H^3 Thymidine uptake (IC50 in nM)
# Description: as §1, §2, §3, §4, §5, §6
# MCF-7 = assay: cells; conditions: Homo sapiens, MCF7, 96 h, read-out: Inhibition of H^3 Thymidine uptake (IC50 in nM)
# Description: as §1, §2, §3, §4, §5, §6
# various cell lines = conditions: in vitro; cited from earlier work
Compound,IC50 (D341) [nM],IC50 (A431) [nM],IC50 (OVCAR-3) [nM],IC50 (SK-N-SH) [nM],IC50 (SKMEL-2) [nM],IC50 (LS174T) [nM],IC50 (Lncap) [nM],IC50 (SKOV-3) [nM],IC50 (MCF-7) [nM],IC50 (various cell lines) [nM]
"COc1cccc2c1C(=O)c1c(O)c3c(c(O)c1C2=O)C[C@@](O)(C(=O)CO)C[C@@H]3O[C@H]1C[C@H](N)[C@H](O)[C@H](C)O1 [Adriamycin, Adriamycin Hydrochloride]",7.02,50.4,4.77,0.896,1.93,4.04,2.54,130,3.11,–
CO[C@H]1C[C@@H]2CC[C@@H](C)[C@@](O)(O2)C(=O)C(=O)N2CCCC[C@H]2C(=O)O[C@H]([C@H](C)C[C@@H]2CC[C@@H](OC(=O)C(C)(CO)CO)[C@H](OC)C2)CC(=O)[C@H](C)/C=C(\C)[C@@H](O)[C@@H](OC)C(=O)[C@H](C)C[C@H](C)/C=C/C=C/C=C/1C [CCI-779],–,–,–,–,–,–,–,–,–,< 10
"CO[C@H]1C[C@@H]2CC[C@@H](C)[C@@](O)(O2)C(=O)C(=O)N2CCCC[C@H]2C(=O)O[C@H]([C@H](C)C[C@@H]2CC[C@@H](O)[C@H](OC)C2)CC(=O)[C@H](C)/C=C(\C)[C@@H](O)[C@@H](OC)C(=O)[C@H](C)C[C@H](C)/C=C/C=C/C=C/1C [Compound 5, Rapamycin]",1.56,341,44.5,1.33,1.12,980,30.3,0.392,0.408,–
